Test results as given in patent publication US12139488B2, “Pyrido[3,2-d]pyrimidine compounds uses thereof for treating a proliferative disease” (Universite de Montreal, priority 2021, dated 2024).
Read-outs that look alike come from different tables or passages of the source.

Columns and labels:
Assay type in all cases: cell-based, human
[1] = test system: Calu-6 cells (KRAS Q61K); assay: Proliferation inhibition (CellTiter-Glo), Calu-6; settings: Calu6, 3 days, read-out: Calu6 Prolif. EC50
Experimental: (§1) All cancer cell lines (A375, A101D, A2058, RKO, HT29 SK-MEL 30, IPC298, HepG2, HCT-116, Lovo, SWV620, SW480, NCI-H358, NCI-H2122, Calu-6, NCIH2087, NCIH1755, NCIH1666 and Mewo) were obtained from ATCC and cultured in RPMI-1640 medium (Gibco) supplemented with 5% heat inactivated fetal bovine serum (FBS, Wisent) at 37° C. under 5% CO2. Cells were maintained in T175 flasks (Greiner). They were passaged by removing the culture medium, washing once in 10 mL of room temperature Phosphate Buffered Saline (PBS; Wisent) and incubating at 37° C. with 2 mL of 0.05% Trypsin (Thermo-Fisher). Trypsin was then inactivated by adding complete growth medium and the cells were then replated in a T175 culture dish at the appropriate dilution. All cell lines were routinely tested for mycoplasma contamination. Tissue type and mutational status of each cell line can be found in Table B.
(§2) CellTiter-Glo® viability analysis was conducted on cells plated in 100 μL of complete RPMI-1640 growth medium in 96-well flat-bottomed white opaque plates (Greiner or Croning) at a density indicated in Table E (for each CCL, number of cells plated per well of a 96-well plate to perform the CellTiter-Glo® cell viability assay). The cell density in cells/cm^2 would correspond to cell number divided by the area of one well of a 96-well plate (0.32 cm^2). […]
(§3) After 3 days of incubation, the growth media were removed by aspiration and 60 μL of diluted CellTiter-Glo® reagent (10 μL CellTiter-Glo® reagent+50 μL of PBS) was added to each well. […] Luminescence signals were then acquired on a Synergy Neo2 plate reader (Biotek).
(§4) The effect of each compound dilution on the proliferation of cancer cell lines was expressed in % inhibition and calculated as follows. […]
(§5) The ability of each compound to inhibit proliferation was expressed as a EC50 value obtained by plotting the effect values for each data point of a dilution series and fitting the obtained curves using a log(agonist) versus response-variable slope (four parameters) function using GraphPadPrism (V7.0) or Dotmatics Screening Ultra platform.

[2] = test system: A375 cells (BRAF V600E); assay: Proliferation inhibition (CellTiter-Glo), A375; settings: A375, 3 days, read-out: A375 Prolif. EC50
Experimental: as §1, §2, §3, §4, §5

[3] = test system: Mewo cells (NF1 LOF); assay: Proliferation inhibition (CellTiter-Glo), Mewo; settings: 3 days, read-out: Mewo Prolif. EC50
Experimental: as §1, §2, §3, §4, §5

[4] = test system: SK-MEL30 cells (NRAS-Q61K); assay: Proliferation inhibition (CellTiter-Glo), SK-MEL30; settings: SK-MEL30, 3 days, read-out: SK-MEL30 Prolif. EC50
Experimental: as §1, §2, §3, §4, §5

[5] = test system: A2058 cells (BRAF V600E); assay: Proliferation inhibition (CellTiter-Glo), A2058; settings: A2058, 3 days; read-out: A2058 Prolif. EC50
Experimental: as §1, with “Trypsin was then inactivated by adding complete growth medium and the cells were then replated in a T175 culture dish at the appropriate dilution. All cell lines were routinely tested for mycoplasma contamination. Tissue type and mutational status of each cell line can be found in Table B.” left out
as §3, §4, §5

[6] = test system: A101D cells (BRAF V600E); assay: Proliferation inhibition (CellTiter-Glo), A101D; settings: 3 days, read-out: A101D Prolif. EC50
Experimental: as §1, with “Trypsin was then inactivated by adding complete growth medium and the cells were then replated in a T175 culture dish at the appropriate dilution. All cell lines were routinely tested for mycoplasma contamination. Tissue type and mutational status of each cell line can be found in Table B.” left out
as §3, §4, §5

[7] = test system: pERK and pMEK in RAS-mutant HCT-116 cells; assay: Immunoblot analysis of pERK and pMEK in HCT-116 cells; settings: 1 h treatment, FIG. 2
Experimental: For immunoblotting analysis, 500,000 HCT-116 cells were plated in 1 mL of complete RPMI-1640 growth medium in 24-well flat-bottomed transparent dishes (Costar). Cells were maintained overnight at 37° C. under 5% CO2 before treatment with compounds' dilution series for one hour.
Cells were then washed once in PBS and lized in 250 μL of Igepal Lysis Buffer (50 mM Tris-HCl pH 7.5, 150 mM NaCl, 1% Igepal-CA630, 1 mM EDTA, 10% Glycerol) supplemented with Leupeptin, Aprotinin, PMSF, phosphatase inhibitor cocktail (Sigma) and Na3VO4 at 4° C. for 15 minutes with gentle rocking. Cell extracts were then cleared by centrifugation at 20,000 g at 4° C. for 10 minutes. Cleared lysates were then transferred on ice in fresh tubes and then boiled in sample loading buffer (100 mM Tris-HCl pH 6.8, 4% SDS, 0.2% bromophenol blue, 20% glycerol, 200 mM p-mercaptoethanol) for 5 minutes prior to fractionation by SDS-PAGE and transfer to nitrocellulose membranes (PALL). […]

EC50 ([1]; Homo sapiens, Calu-6, 72 h)	EC50 ([2]; Homo sapiens, A-375, 72 h)	EC50 ([4]; Homo sapiens, SK-MEL-30, 72 h)	EC50 [1]	EC50 [2]	EC50 [4]	Compound	EC50 ([3]; Homo sapiens, 72 h)	EC50 [5]	EC50 [3]	EC50 [6]	paradoxical induction of pERK or pMEK signaling (immunoblot) [7]
< 30 nM	< 30 nM	< 30 nM				Cc1ccc2c(Nc3cccc(Cl)c3F)nccc2c1NC(=O)c1csc2c(N)ncnc12 [Belvarafenib, reference compound]	300 to 3000 nM				
			300 to 3000 nM	< 30 nM	< 30 nM	Nc1cccc2c1ncn2-c1ccc2ncnc(Nc3c(F)ccc(NS(=O)(=O)c4cccc(Cl)c4Cl)c3F)c2n1 [Example 99]		< 30 nM	< 30 nM	< 30 nM	does not induce paradoxical induction of pERK or pMEK signaling
			300 to 3000 nM	< 30 nM	< 30 nM	CC1(O)CCN(c2cccc3c2ncn3-c2ccc3ncnc(Nc4c(F)ccc(NS(=O)(=O)c5cccc(Cl)c5Cl)c4F)c3n2)CC1 [Example 524]		< 30 nM	< 30 nM	< 30 nM	
